Results published in paper PMC9003339 (2022).

Assays:
[1] = system: ATP aptamer (screened, 32 nt, 5'FAM modified) (DNA, aptamer) TGGCGTCTGCATGCAGGTCGACGCATGCGCCG; assay: graphene oxide fluorescence recovery; settings: 5 mM KCl, 100 mM NaCl, 1 mM MgCl2, 50 mM Tris-HCl pH 7.4, 25 °C, aptamer 300 nM
[2] = system: Classic ATP aptamer (DNA, aptamer) ACCTGGGGGAGTATTGCGGAGGAAGGT; assay: graphene oxide fluorescence recovery; settings: 5 mM KCl, 100 mM NaCl, 1 mM MgCl2, 50 mM Tris-HCl pH 7.4, 25 °C, aptamer 300 nM
[3] = system: Functional chimera sequence (DNA, aptamer) TGGCGTCTGCATGCAGGTCGACGCATGCGCCGCCTGAGCTTAGAT; assay: release from graphene oxide, PAGE; settings: 5 mM KCl, 100 mM NaCl, 1 mM MgCl2; 50 mM Tris-HCl pH 7.4, 25 °C; chimera 2 μM, ATP 1 mM
[4] = system: FAM-labeled functional chimera sequence (DNA, aptamer) TGGCGTCTGCATGCAGGTCGACGCATGCGCCGCCTGAGCTTAGAT; assay: fluorescence recovery from graphene oxide; settings: 5 mM KCl, 100 mM NaCl, 1 mM MgCl2; 50 mM Tris-HCl pH 7.4, 25 °C; chimera 2 μM, ATP 1 mM
[5] = system: ATP aptamer (screened, 32 nt, 5'FAM modified) (DNA, aptamer) TGGCGTCTGCATGCAGGTCGACGCATGCGCCG; assay: graphene oxide fluorescence assay, aptamer titrated at fixed ATP; settings: 5 mM KCl, 100 mM NaCl, 1 mM MgCl2, 50 mM Tris-HCl pH 7.4, 25 °C, aptamer 50–500 nM, 1 μL of 100 mM in 200 μL

With `Nc1ncnc2c1ncn2[C@@H]1O[C@H](COP(=O)(O)O)[C@@H](O)[C@H]1O` the binding ([1]; 1 μL of 100 mM AMP, ATP 4.7-fold higher) was “weak” and the binding ([2]; 1 μL of 100 mM AMP) was “yes”.
For `Nc1ncnc2c1ncn2[C@@H]1O[C@H](COP(=O)(O)OP(=O)(O)O)[C@@H](O)[C@H]1O`, the binding ([1]; 1 μL of 100 mM ADP, ATP 2.4-fold higher) was “weak” and the binding ([2]; 1 μL of 100 mM ADP) was “yes”.
For `Nc1ncnc2c1ncn2[C@@H]1O[C@H](COP(=O)(O)OP(=O)(O)OP(=O)(O)O)[C@@H](O)[C@H]1O`, the binding [3] was “yes”, the binding ([2]; 1 μL of 100 mM ATP) was “yes” and the binding [4] was “yes”. For the same compound, the Kd [5] was 70.61 ± 20.91 nM.
